# Experiments:
# [1] = tested on: mouse skin reepithelialization; experiment: Mouse wound healing model - skin reepithelialization; format: in vivo
# Source text: The healing of wounded skin is mediated by epidermal reepithelialization that requires keratinocyte migration. Glucocorticoids are known to inhibit wound healing (Ehrlich et al., Proc Soc Exp Biol Med, 1971, 137: 936-938; Leibovich et al., Am J Pathol, 1975, 78, 71-100). […] The methods for studying mouse skin reepithelialization using both partial and full thickness mouse wound healing models have been described elsewhere (Kim et al. Wound Repair Regen, 2001, 9: 386-390). In brief, for partial thickness wounds, a 3 mm-diameter circle of epidermis is removed from the ventral auricle. The resulting wound is cleansed and dressed with an occlusive polyurethane film. The mouse ears are excised on days 3, 5, 8, and 11 post-operation and fixed in 10% buffered formalin. Following day 8 post-operation, sampling of treated mice is performed to determine completion of healing. For full thickness wounds, mice heads are shaved and depilated prior to excising the skin. The cleaned and dressed wounds are harvested and fixed at days 3, 5, 8 and 10 and fixed in 10% buffered formalin.
# neutrophils = experiment: Inhibition of oxidative burst from neutrophils (fMLP-induced superoxide release); format: cell-based; conditions: Neutrophil, reduction of superoxide formation, fMLP 0.2 μM, 0 to 100 μM compound; read-out: ED50 Respiratory Burst
# Method: During inflammation, neutrophils produce and release superoxide ions, otherwise known as oxidative burst response, causing cytotoxicity. […] The superoxide release assay is based on published protocols (Goldstein et al. (1975). J. Clin. Invest. 56(5): 1155-63). Briefly, cells were pre-incubated for 10 min at 37° C. with a mixture of cytochrome c (75 μM final concentration), cytochalasin B (5 μg/ml) with or without superoxide dismutase (SOD) (10 μg/ml) and with or without AFC, AFC-Calcium complex, and AFC-Strontium complex (ranging from 0 to 100 μM). To initiate O2^− release, fMLP (0.2 μM) was added the cells are incubated for 10 min at 37° C. Samples were then placed on ice for 5 min and subsequently centrifuged at 3,000 rpm at 4° C. The supernatant was then analyzed by spectrophotometric measurement at 550 and 556.5 nm. The ED50 values for the reduction of superoxide formation, obtained with AFC, AFC-Calcium complex, and AFC-Strontium complex are depicted in Table 2.
# [2] = tested on: TPA-treated mouse ears (erythema, Δa* redness); experiment: TPA mouse ear model of inflammation - erythema inhibition; format: in vivo; conditions: topical, 24 hours
# Method: The protocol for measuring erythema inhibition by provided complexes was developed in-house by utilizing the CR-400 chroma meter from Konica Minolta (2). This instrument was used to measure the Δa*redness value from 6 mm biopsy punches taken 24 hours post TPA/compound treatment as described in the edema inhibition section above. […] These values were corrected for the Δa* value of non TPA-treated mouse ears of littermate controls.
# [3] = tested on: TPA-treated mouse ears (edema, ear thickness); experiment: TPA mouse ear model of inflammation - edema inhibition; format: in vivo; conditions: topical, 24 hours
# [4] = tested on: MPO (myeloperoxidase), neutrophil marker; experiment: TPA mouse ear model of inflammation - MPO inhibition (dermal neutrophil infiltration); format: in vivo; conditions: TPA-treated mouse ear
# Method: Briefly, we homogenized 6mm biopsy punches taken from both compound-treated ears as well as TPA-treated and non-treated control groups. We quantitated the levels of MPO by a colorimetric reaction that was measured spectrophotometrically. The percent inhibition of neutrophil infiltration by each complex was determined by comparing the average MPO levels in the presence and absence of these compounds. The calculation for percent inhibition of MPO was determined similar to that as described for calculating the percent edema inhibition, see the Edema Inhibition protocol, supra.
# [5] = tested on: TPA-treated mouse ears (edema, ear thickness); experiment: TPA mouse ear model of inflammation - edema inhibition; format: in vivo; conditions: TPA-treated mouse ear
# Method: In brief, mice were sedated and their ears were treated with 1.2 μg/20 uL TPA (i.e., tetradecanoylphorbol-13-acetate). After 5 minutes, we dosed these TPA-treated ears with a single 8 μg/20 μL dose, a 2 μg/20 μL dose, or both doses, of provided complexes. After 24 hours, the mice were sacrificed and edema was measured by taking micrometer readings of each ear. […] These values were corrected for the thickness of normal, non TPA-treated mouse ears of littermate controls.
# [6] = tested on: MPO activity (neutrophil infiltration) in P. acnes-injected ear; experiment: P. acnes-induced mouse ear model of inflammation - MPO endpoint; format: in vivo; conditions: dose of 0.4 mg/20 μL
# Method: The methods for a model of P. acnes-inflammation are described elsewhere (Nakatsuji et al., J Invest Dermatol, 2008, 128: 2451-2457).
# The protocol for inducing inflammation using P. acnes bacterial challenge on the mouse ear was slightly modified from the method described previously (Natatsuji et al., 2008). Briefly, Swiss Webster (ICR, 6-8 weeks old) mouse ears were injected with living P. acnes culture intradermally. An amount of 20 μl aliquots of living P. acnes (ATCC 6919, 3×10^6 CFU) suspended in PBS was intradermally injected in the central portion of the ear. As a control, 20 μl of PBS was injected into control animals.
# To assay for inhibition of dermal neutrophil infiltration by AFC complexes, a standard method was used (see Bradley et al., J Invest Dermatol, 1982,78: 206-209; Young et al., J Invest Dermatol, 1983, 80: 48-52; De Young et al, Agents Actions, 1989, 26: 335-41; and Rao et al., Inflammation, 1993, 17: 723-41). Briefly, 6mm biopsy punches taken from both compound-treated ears as well as non-treated control ears were homogenized in 400 μl of 0.5% hexadecyltrimethylammonium bromide in 50 mM potassium phosphate buffer (pH 6.0) using the Fast Prep 24 (MP Biomedicals, Solon, Ohio). Supernatants were assayed for MPO activity using a model EL 340 96-well plate reader (BioTek Instruments, Winooski, Vt.). The percent inhibition of neutrophil infiltration by each AFC complex was determined by comparing the average MPO levels in the presence and absence of these compounds. The percent inhibition of MPO was determined by taking the average MPO activity of compound-treated ears and dividing it by the average MPO activity of 12 ears that only received the P. acnes challenge and subtracting that value from 100%. These values were corrected for the MPO activity of normal, non P. acnes-treated mouse ears of littermate controls. Summary of MPO activity ranges determined from an MPO activity assay for dexamethasone (administered at a dose of 1.6 mg/20 μL), clobetasol (administered at a dose of 0.1 mg/20 μL), salicylic acid (administered at a dose of 0.4 mg/20 μL), AFC (administered at a dose of 0.4 mg/20 μL), AFC-Strontium complex (administered at a dose of 0.4 mg/20 μL) and SFC-disodium are presented in Table 4. “+” indicates a range of 0-20%, “++” indicates a range of 20-40%, and “+++” indicates >40% inhibition.
# [7] = at the dose tested, AFC oil n=1, data not shown
smiles,measurement,setting,value
"CC(=O)N[C@@H](CSC/C=C(\C)CC/C=C(\C)CCC=C(C)C)C(=O)O [AFC, N-acetyl-S-farnesyl-L-cysteine, reference compound]",effect on mouse skin reepithelialization of wounds,[1],no effects
same,EC50,neutrophils,0.0433 mM
same,% Erythema Inhibition in the Mouse Ear Inflammation Assay (4% concentration),[2],++ (“++” indicates a range of 20-40%)
same,% Edema Inhibition in the Mouse Ear Inflammation Assay (4% concentration),[3],+++ (“+++” indicates >50% inhibition of edema)
same,inhibition of neutrophil infiltration,[4]; [7],55.90%
same,ED50 in the MPO assay,"[4]; several concentrations, inhibitory activity curves",651 μg/ear
same,% MPO Inhibition in the Mouse Ear Inflammation Assay (4% concentration),"[4]; topical, 4% concentration, 24 hours",++ (“++” indicates a range of 40-80%)
same,ED50 value for inhibiting neutrophil infiltration,"[4]; topical, listed as AFC oil",38.8 mM
same,inhibition of edema,[5]; [7],56.35%
same,ED50 for edema inhibition,"[5]; topical, listed as AFC oil",54.8 mM
same,MPO % Inhibition,[6],+++ (“+++” indicates >40% inhibition)

# Reference: US20100247461A1, “ANTI-INFLAMMATORY COMPLEXES” (Signum Biosciences, Inc., priority 2009, published 2010)
